These results are taken from EP0104572A1, “Benzyl ethers of phenol Mannich bases, process for their production, their use and pharmaceutical preparations based on these compounds, intermediates and process for their production” (priority 1982, dated 1984).

Read-outs that look alike come from different tables or passages of the source.

A short description of series [1]: Change of relative liver weight and liver findings in the 7-day oral rat study. The note with it: for % Veränderung des relativen Lebergewichtes: oral (gavage), 7 days, male Wistar rats. In kind it is in vivo, männlichen Wistar-Ratten. The source says: Die erfindungsgemäßen Verbindungen haben wertvolle therapeutische Eigenschaften. So erniedrigen sie vor allem die Konzentration von LDL und VLDL, die HDL-Fraktion aber kaum, in vielen Fällen wird diese Fraktion sogar vermehrt. Diese Verbindungen stellen daher einen wesentlichen Fortschritt gegenüber der Vergleichsverbindung Clofibrat dar, wie aus .den nachfolgend beschriebenen Daten ersichtlich ist. Sie können daher zur Prophylaxe und Regression von arteriosklerotischen Veränderungen herangezogen werden, indem sie einen kausalen Risikofaktor ausschalten. Hierzu zählen nicht nur die primären Hyperlidämien, sondern auch gewisse sekundäre Hyperlipidämien wie sie z.B. beim Diabetes vorkommen. […] Die mit einer hypolipidämischen Wirkung verbundene unerwünschte Beeinflussung der Leber zeigt sich auch in sehr starkem Maße bei der in J.Med.Chem. 18 (1975) S. 833-836 beschriebenen Vergleichsverbindung 1-(4-Methylbenzyl)-imidazol. […] Die erfindungsgemäßen Verbindungen zeigen dieses unerwünschte Verhalten nicht.
(§1) Die Wirkung der angeführten Verbindungen auf die Serum- Lipoproteine wurde an männlichen Wistar-Ratten untersucht, die 7 Tage per Schlundsonde mit den angeführten in Polyäthylenglykol 400 suspendierten Verbindungen behandelt wurden. Außerdem wurde eine Kontrollgruppe, die nur das Lösungsmittel Polyäthylenglykol 400 erhielt, mitgeführt, sowie bei den meisten Versuchen eine Ratten-Gruppe mit dem Standardhypolipidämikum Clofibrat. Pro Gruppe wurden in der Regel 10 Tiere eingesetzt, denen am Ende der Behandlung das Blut nach leichter Äthernarkose aus dem Orbitalplexus entnommen wurde. Aus dem gewonnenen Ratten-Serum wurden die Serum- Lipoproteine in der präparativen Ultrazentrifuge in folgende Dichteklassen getrennt: VLDL < 1,006; LDL 1,006 bis 1,04; HDL 1,04 bis 1,21

The test system of series [2] is Serum-Lipoproteine. Briefly: Change of serum and lipoprotein-fraction cholesterol in rats after 7 days of oral treatment (ultracentrifuge fractionation, CHOD-PAP cholesterol). The format is in vivo, männlichen Wistar-Ratten. The note with it: Rattus norvegicus, 168 h, oral (gavage), 7 days, male Wistar rats; for change in vivo at 3 mg/kg: 3 mg/kg / Tag; for change in vivo at 10 mg/kg: 10 mg/kg / Tag; for change in vivo at 30 mg/kg: 30 mg/kg / Tag; for change in vivo at 1 mg/kg: 1 mg/kg / Tag; for change in vivo at 20 mg/kg: 20 mg/kg / Tag.
Source text: as §1
Da nämlich im Gegensatz zum Menschen die Serumlipoproteine der Ratte etwa 4/5 HDL-Cholesterin und nur 1/5 LDL-Cholesterin enthalten und nur sehr geringe Mengen von VLDL (beim Menschen umgekehrt etwa 2/3 LDL und VLDL und nur 1/3 bis 1/4 HDL), macht die Beurteilung einer hypolipidämischen Wir- .kung an der Ratte unbedingt eine Fraktionierung des Ratten-serums in Lipoproteinklassen erforderlich. Eine bloße Erniedrigung des Serum-Total-cholesteringehaltes an der Ratte würde nämlich nur die unerwünschte Erniedrigung der bei der Ratte vorwiegenden antiatherogenen HDL-Klasse anzeigen. Eine erwünschte Erniedrigung von LDL bei gleichzeitiger erwünschter Vermehrung von HDL hätte aber keine (wesentliche) Auswirkung auf den Totalcholesteringehalt des Ratten-Serums.
Aus den in der Ultrazentrifuge isolierten LipoproteinFraktionen wurde das darin enthaltene Cholesterin vollenzymatisch nach der CHOD-PAP-Methode mittels der Testkombination von Boehringer-Mannheim bestimmt und die Werte in µg/ml Serum umgerechnet. In der angeführten Tabelle ist die Veränderung des Lipoprotein-Cholesterins in der behandelten Gruppe gegenüber einer unter gleichen Bedingungen mitgeführten Kontrollgruppe angegeben.
Veränderung in % der Lipoproteine im Ratten-Serum nach siebentägiger oraler Applikation der Verbindungen

The mark [3] stands for this setting: read-out: Cholesterolveränderung in %, bezogen auf die Kontrollgruppe im Serum.
The mark [4] stands for this setting: read-out: Cholesterolveränderung in %, bezogen auf die Kontrollgruppe in den Serum-Lipoprotein-Fraktionen HDL.
Setting [5] is: read-out: Cholesterolveränderung in %, bezogen auf die Kontrollgruppe in den Serum-Lipoprotein-Fraktionen LDL.
Where [6] appears, read: read-out: Cholesterolveränderung in %, bezogen auf die Kontrollgruppe in den Serum-Lipoprotein-Fraktionen VLDL.

For the molecule `Cc1ccc(Cn2ccnc2)cc1` [1-(4-Methyl-benyl)-imidazol, 1-(4-Methylbenzyl)-imidazol, reference compound], the “unerwünschte Beeinflussung der Leber” value in series [1] (rat, in vivo) is recorded as “massive Hepatomegalie mit massiven Neutralfett- und Cholesterineinlagerungen”. In addition, the change in vivo at 3 mg/kg was 11% in series [2] (setting [3]), 18% in series [2] (setting [4]), -5% in series [2] (setting [5]) and 10% in series [2] (setting [6]). Besides, the change in vivo at 10 mg/kg in series [2] (setting [3]) was 16%; in series [2] (setting [4]), 22%; in series [2] (setting [5]), -3%; in series [2] (setting [6]), -23%. In addition, the change in vivo at 30 mg/kg in series [2] (setting [3]) was -44%; in series [2] (setting [4]) it was -24%; in series [2] (setting [5]) it was -90%; in series [2] (setting [6]), -100%.

For the molecule `Cc1cc(Cn2ccnc2)cc(Cl)c1OCc1ccc(C(=O)C(C)(C)C)cc1` [Beispiel 1, 4-[2-Chlor-4-(-imidazol-1-ylmethyl)-6-methylphenoxymethyl]-phenyl-tert.-butyl-keton], the “% Veränderung des relativen Lebergewichtes” value in series [1] (1 mg/kg / Tag) is on record as “+4%”; in series [1] (3 mg/kg / Tag), “+9%”. For the same molecule, the change in vivo at 1 mg/kg is 8% in series [2] (setting [4]), -40% in series [2] (setting [5]) and 0% in series [2] (setting [6]). Moreover, the change in vivo at 3 mg/kg in series [2] (setting [3]) was -12%; in series [2] (setting [4]), 3%; in series [2] (setting [5]) it was -42%; in series [2] (setting [6]), 0%. Further, the change in vivo at 10 mg/kg in series [2] (setting [3]) is -17%; in series [2] (setting [4]), -5%; in series [2] (setting [5]), -52%; in series [2] (setting [6]) it was 0%.

As to `C=CCc1cc(Cn2ccnc2)cc(C)c1OCc1ccc(C(=O)C(C)(C)C)cc1` [Beispiel 1.2], the change in vivo at 30 mg/kg in series [2] (setting [4]) was 9%; in series [2] (setting [5]), -39%; in series [2] (setting [6]) it was -31%.

For the molecule `CC(C)(C)C(=O)c1ccc(COc2c(Cl)cc(Cn3ccnc3)cc2Cl)cc1` [Beispiel 1.6], the change in vivo at 10 mg/kg was 7% in series [2] (setting [4]) and -32% in series [2] (setting [5]).

For the molecule `C=CCc1cc(Cn2ccnc2)cc(Cl)c1OCc1ccc(C(=O)C(C)(C)C)cc1` [Beispiel 1.7], the values for the change in vivo at 20 mg/kg in series [2] (setting [3]), in series [2] (setting [4]) and in series [2] (setting [5]) were -18%, -7% and -43%, respectively.

As for `COc1cc(Cn2ccnc2)cc(OC)c1OCc1ccc(C(=O)C(C)(C)C)cc1` [Beispiel 1.8], the change in vivo at 20 mg/kg in series [2] (setting [3]) was -19%; in series [2] (setting [4]), -4%; in series [2] (setting [5]), -43%; in series [2] (setting [6]), -19%.

With `Cc1cc(Cn2ccnc2)cc(C)c1OCc1ccc(C(=O)C(C)(C)CCl)cc1` [Beispiel 1.16], the change in vivo at 3 mg/kg in series [2] (setting [4]) was -11%; in series [2] (setting [5]), -32%; in series [2] (setting [6]), -32%. In addition, the change in vivo at 10 mg/kg in series [2] (setting [3]) is -15%; in series [2] (setting [4]) it was -1%; in series [2] (setting [5]) it was -52%; in series [2] (setting [6]) it was -24%.

On to `Cc1cc(Cn2cncn2)cc(Cl)c1OCc1ccc(C(=O)C(C)(C)C)cc1` [Beispiel 1.19], for which the change in vivo at 10 mg/kg is -11% in series [2] (setting [3]), -29% in series [2] (setting [5]) and -35% in series [2] (setting [6]).

On to `Cc1cc(Cn2cccn2)cc(C)c1OCc1ccc(C(=O)C(C)(C)C)cc1` [Beispiel 1.21], for which the change in vivo at 30 mg/kg in series [2] (setting [3]) is 0%; in series [2] (setting [5]), -35%; in series [2] (setting [6]), -62%.

Regarding `Cc1cc(Cn2ccnc2)cc(C)c1OCc1ccc(C(=O)c2ccc(Cl)cc2)cc1` [Beispiel 1.46], the change in vivo at 10 mg/kg in series [2] (setting [5]) was -35%; in series [2] (setting [6]), -29%.

Consider `Cc1cc(Cn2ccnc2)cc(C)c1OCc1ccc(C2(C(C)(C)C)OCCO2)cc1` [Beispiel 1.52], for which the figures for the change in vivo at 30 mg/kg in series [2] (setting [5]) and in series [2] (setting [6]) were -23% and -36%, respectively.

Turning to `Cc1cc(Cn2ccnc2)cc(C)c1OCc1ccc(C(O)C(C)(C)C)cc1` (stereo not shown) [Beispiel 2.1], in series [1] (1 mg/kg / Tag), the “% Veränderung des relativen Lebergewichtes” value is given as “+11%”. Besides, the change in vivo at 1 mg/kg in series [2] (setting [4]) was 17%; in series [2] (setting [5]) it was -53%; in series [2] (setting [6]), 17%. The change in vivo at 10 mg/kg in series [2] (setting [3]) is -22%; in series [2] (setting [5]) it was -66%; in series [2] (setting [6]), -54%.

Consider `C=CCc1cc(Cn2ccnc2)cc(C)c1OCc1ccc(C(O)C(C)(C)C)cc1` (stereo not shown) [Beispiel 2.2], for which the change in vivo at 30 mg/kg in series [2] (setting [4]) was 14%; in series [2] (setting [5]), -49%; in series [2] (setting [6]), -34%.

With `CC(C)c1cc(Cn2ccnc2)cc(C(C)C)c1OCc1ccc(C(O)C(C)(C)C)cc1` (stereo not shown) [Beispiel 2.4], the change in vivo at 30 mg/kg in series [2] (setting [3]) is -12%; in series [2] (setting [5]), -38%; in series [2] (setting [6]), -50%.

For the molecule `Cc1cc(Cn2ccnc2)cc(C)c1OCc1ccc(C(=O)C(C)(C)C)cc1` [Beispiel 3, 4-[2,6-Dimethyl-4-(imidazol-1-ylmethyl)-phenoxymethyl]-phenyl-tert.-butyl-keton], the entries for the “% Veränderung des relativen Lebergewichtes” value in series [1] (1 mg/kg / Tag) and in series [1] (3 mg/kg / Tag) were -2% and -4%, respectively. Also, the change in vivo at 1 mg/kg in series [2] (setting [4]) is 5%; in series [2] (setting [5]), -33%; in series [2] (setting [6]), 30%. The change in vivo at 3 mg/kg in series [2] (setting [4]) was 2%; in series [2] (setting [5]), -36%; in series [2] (setting [6]) it was 17%. The change in vivo at 10 mg/kg in series [2] (setting [4]) is 2%; in series [2] (setting [5]) it was -45%; in series [2] (setting [6]), -58%.
